Data on 10 molecules can be found in patent publication US20250009745A1, “CDK INHIBITOR” (SHANGHAI QILU PHARMACEUTICAL RESEARCH AND DEVELOPMENT …, priority 2021, published 2025).

What all share (assay): CDK enzymology experiment in vitro, capillary mobility shift assay (MSA)
What all share (type): biochemical

The target of one assay is T1, CDK1 (Homo sapiens, UniProt P06493).
T1 construct: purchased Carna Company
The note with it: read-out: CDK1 (nM) inhibitory IC50. The gist of the method: (§1)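 Recombinant kinases tested against peptide substrates in 1× kinase buffer, with compound added as a 100-fold DMSO stock. Top concentration 1, 10 or 30 μM, 3-fold dilutions over 10 points, in duplicate. Substrate conversion read by Caliper EZ Reader, normalised to no-enzyme and no-compound controls, and IC50 fitted with a variable-slope log(inhibitor)–response model.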

The next assay concerns the target T2, CDK2 (Homo sapiens, UniProt P24941).
T2 construct: purchased Carna Company
The following applies: read-out: CDK2 (nM) inhibitory IC50. The gist of the method:
as §1

The next assay has as its target T3, CDK4 (Homo sapiens, UniProt P11802).
T3 construct: purchased Carna Company
The note with it: read-out: CDK4 (nM) inhibitory IC50. The essentials: as §1

The target of a further assay is T4, CDK7 (Homo sapiens, UniProt P50613).
T4 construct: purchased Carna Company
The following applies: read-out: CDK7 (nM) inhibitory IC50. The essentials:
as §1

The target in the next assay is T5, CDK9 (Homo sapiens, UniProt P50750).
T5 construct: purchased Carna Company
The following applies: read-out: CDK9 (nM) inhibitory IC50. The gist of the method: as §1

In another assay the target is T6, CDK6 (Homo sapiens, UniProt Q00534).
T6 construct: purchased Carna Company
The note with it: read-out: CDK6 (nM) inhibitory IC50.

T5 sequence (P50750 whole entry): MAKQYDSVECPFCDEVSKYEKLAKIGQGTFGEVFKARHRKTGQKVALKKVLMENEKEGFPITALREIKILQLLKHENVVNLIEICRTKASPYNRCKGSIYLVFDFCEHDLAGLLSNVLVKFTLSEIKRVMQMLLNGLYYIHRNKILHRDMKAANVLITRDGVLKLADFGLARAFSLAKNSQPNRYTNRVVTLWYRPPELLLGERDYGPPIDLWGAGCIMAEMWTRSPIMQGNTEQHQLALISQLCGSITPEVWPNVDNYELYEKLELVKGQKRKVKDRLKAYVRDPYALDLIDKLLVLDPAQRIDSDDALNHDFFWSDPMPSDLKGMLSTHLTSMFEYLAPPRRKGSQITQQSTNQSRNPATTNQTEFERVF
T5 sequence (O60563 whole entry partner): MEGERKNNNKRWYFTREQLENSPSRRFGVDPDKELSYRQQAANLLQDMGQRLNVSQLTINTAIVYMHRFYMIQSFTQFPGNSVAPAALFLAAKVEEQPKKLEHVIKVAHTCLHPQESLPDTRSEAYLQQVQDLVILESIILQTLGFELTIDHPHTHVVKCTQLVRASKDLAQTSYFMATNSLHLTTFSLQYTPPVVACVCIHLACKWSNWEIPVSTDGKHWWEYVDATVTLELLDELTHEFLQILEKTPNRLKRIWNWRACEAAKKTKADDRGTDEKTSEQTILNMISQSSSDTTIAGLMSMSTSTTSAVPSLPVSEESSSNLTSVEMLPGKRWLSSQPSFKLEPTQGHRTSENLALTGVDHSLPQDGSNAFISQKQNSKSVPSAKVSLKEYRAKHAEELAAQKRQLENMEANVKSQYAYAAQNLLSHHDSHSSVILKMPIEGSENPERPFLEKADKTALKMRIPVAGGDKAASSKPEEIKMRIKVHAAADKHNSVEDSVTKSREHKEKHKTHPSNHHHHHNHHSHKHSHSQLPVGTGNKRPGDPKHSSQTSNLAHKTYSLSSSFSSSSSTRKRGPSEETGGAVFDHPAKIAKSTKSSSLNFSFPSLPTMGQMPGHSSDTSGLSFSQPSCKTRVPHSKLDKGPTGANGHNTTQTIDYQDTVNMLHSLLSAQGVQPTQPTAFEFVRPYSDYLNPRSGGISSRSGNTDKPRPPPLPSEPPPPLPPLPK
T6 sequence (Q00534 whole entry): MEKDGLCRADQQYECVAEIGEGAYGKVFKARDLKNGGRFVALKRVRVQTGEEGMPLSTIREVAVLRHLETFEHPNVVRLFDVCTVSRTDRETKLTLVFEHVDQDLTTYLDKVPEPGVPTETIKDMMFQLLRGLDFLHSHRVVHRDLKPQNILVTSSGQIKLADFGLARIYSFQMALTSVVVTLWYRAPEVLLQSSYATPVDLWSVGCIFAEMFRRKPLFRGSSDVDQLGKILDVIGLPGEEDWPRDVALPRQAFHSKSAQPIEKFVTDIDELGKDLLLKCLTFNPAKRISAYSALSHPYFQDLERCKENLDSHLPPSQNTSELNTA
T6 sequence (P30281 whole entry partner): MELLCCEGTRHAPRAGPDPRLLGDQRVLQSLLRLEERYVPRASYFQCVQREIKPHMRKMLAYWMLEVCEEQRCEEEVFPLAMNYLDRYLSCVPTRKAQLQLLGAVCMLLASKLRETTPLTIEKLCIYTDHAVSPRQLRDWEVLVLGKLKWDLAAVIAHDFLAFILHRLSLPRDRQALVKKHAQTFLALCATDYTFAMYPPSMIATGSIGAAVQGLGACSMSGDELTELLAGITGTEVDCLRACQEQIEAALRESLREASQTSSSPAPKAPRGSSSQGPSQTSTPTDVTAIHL
T4 sequence (P50613 whole entry): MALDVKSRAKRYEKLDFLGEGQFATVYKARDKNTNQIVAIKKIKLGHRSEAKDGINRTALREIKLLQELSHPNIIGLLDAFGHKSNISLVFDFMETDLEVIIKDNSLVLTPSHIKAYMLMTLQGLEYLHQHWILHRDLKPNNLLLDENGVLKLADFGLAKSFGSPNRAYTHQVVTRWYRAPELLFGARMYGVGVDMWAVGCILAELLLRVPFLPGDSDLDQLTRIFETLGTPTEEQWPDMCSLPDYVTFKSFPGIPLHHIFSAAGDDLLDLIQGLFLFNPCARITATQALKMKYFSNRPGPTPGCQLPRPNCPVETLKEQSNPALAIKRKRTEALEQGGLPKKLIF
T4 sequence (P51946 whole entry partner): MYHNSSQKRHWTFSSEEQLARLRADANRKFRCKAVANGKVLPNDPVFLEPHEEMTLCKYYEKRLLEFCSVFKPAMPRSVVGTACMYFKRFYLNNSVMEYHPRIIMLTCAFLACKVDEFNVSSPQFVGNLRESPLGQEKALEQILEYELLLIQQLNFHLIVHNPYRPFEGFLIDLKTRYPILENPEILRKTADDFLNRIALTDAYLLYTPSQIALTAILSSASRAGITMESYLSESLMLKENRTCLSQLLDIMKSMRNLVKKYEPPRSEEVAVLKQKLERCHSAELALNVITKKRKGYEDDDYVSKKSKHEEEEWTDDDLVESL
T4 sequence (P51948 whole entry partner): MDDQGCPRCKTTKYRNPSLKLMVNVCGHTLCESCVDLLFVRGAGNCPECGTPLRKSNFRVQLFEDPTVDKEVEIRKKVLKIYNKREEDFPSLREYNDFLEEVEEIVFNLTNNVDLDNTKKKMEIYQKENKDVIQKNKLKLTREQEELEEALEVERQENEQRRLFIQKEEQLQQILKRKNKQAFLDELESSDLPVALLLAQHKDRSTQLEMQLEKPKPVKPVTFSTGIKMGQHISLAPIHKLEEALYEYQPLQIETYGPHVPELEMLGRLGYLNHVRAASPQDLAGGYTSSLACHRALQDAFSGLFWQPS
T1 sequence (P06493 whole entry): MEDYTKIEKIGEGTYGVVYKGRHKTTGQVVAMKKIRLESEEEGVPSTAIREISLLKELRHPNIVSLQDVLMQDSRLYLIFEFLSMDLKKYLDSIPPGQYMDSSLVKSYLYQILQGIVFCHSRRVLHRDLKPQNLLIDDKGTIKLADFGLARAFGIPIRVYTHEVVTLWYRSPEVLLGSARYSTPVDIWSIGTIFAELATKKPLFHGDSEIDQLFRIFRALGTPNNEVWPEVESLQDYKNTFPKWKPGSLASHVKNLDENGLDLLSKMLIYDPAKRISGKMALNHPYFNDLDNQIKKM
T1 sequence (P14635 whole entry partner): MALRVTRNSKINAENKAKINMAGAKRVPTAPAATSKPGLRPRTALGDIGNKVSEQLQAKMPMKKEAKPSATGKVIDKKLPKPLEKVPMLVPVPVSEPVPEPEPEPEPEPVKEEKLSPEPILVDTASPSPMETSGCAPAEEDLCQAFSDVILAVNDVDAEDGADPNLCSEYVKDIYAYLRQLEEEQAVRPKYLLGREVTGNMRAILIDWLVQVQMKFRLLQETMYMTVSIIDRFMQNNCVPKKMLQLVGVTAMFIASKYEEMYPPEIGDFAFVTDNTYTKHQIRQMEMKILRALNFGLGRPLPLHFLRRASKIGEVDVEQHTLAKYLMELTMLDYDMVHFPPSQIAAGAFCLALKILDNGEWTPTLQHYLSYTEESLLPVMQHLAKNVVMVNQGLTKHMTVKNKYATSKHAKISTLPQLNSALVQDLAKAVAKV
T3 sequence (P11802 whole entry): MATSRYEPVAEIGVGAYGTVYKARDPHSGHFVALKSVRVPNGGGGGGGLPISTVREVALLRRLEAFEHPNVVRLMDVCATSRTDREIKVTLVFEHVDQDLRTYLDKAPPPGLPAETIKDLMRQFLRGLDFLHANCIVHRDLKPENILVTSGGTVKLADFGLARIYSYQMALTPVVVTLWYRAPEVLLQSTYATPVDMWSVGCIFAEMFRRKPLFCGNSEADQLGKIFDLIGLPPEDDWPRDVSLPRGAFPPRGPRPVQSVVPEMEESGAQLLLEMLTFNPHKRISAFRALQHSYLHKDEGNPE
T3 sequence (P30281 whole entry partner): as the sequence (P30281 whole entry partner) above

As usually defined, the IC50 is the concentration that gives 50% inhibition. With `Cn1cc(S(=O)(=O)N2CCC(Nc3ncc(C#N)c(N[C@H]4CCOC4)n3)CC2)cn1` [Compound 44], the 50% inhibitory concentration (IC50) was 100 to 1000 nM at CDK1; 2.5 to 10 nM on CDK2; 50 to 100 nM at CDK4; 100 to 1000 nM on CDK7; more than 1000 nM on CDK9; 50 to 100 nM on CDK6.

As for `O=S(=O)(c1ccc(N2CCNC(C(F)(F)F)C2)cc1)N1CCC(Nc2ncc(C(F)(F)F)c(O[C@H]3CCOC3)n2)CC1` (stereo partly drawn) [Compound 147], the IC50 on CDK1 was in the range of 2.5 to 10 nM; on CDK2, 0.5 to 2.5 nM; at CDK4, 0.5 to 2.5 nM; on CDK7, 10 to 50 nM; at CDK9, 50 to 100 nM; on CDK6, 0.5 to 2.5 nM.

Regarding `O=S(=O)(c1ccc(N2CCNCC2)cc1)N1CCC(Nc2ncc(C(F)(F)F)c(O[C@H]3CCOC3)n2)CC1` [Example 116], the half-inhibitory concentration (IC50) on CDK1 is 2.5 to 10 nM; on CDK2 it was less than 0.5 nM; at CDK4, 0.5 to 2.5 nM; on CDK7 it was 10 to 50 nM; at CDK9 it was 100 to 1000 nM; on CDK6, 0.5 to 2.5 nM.

Consider `C[C@@H]1CN(c2ccc(S(=O)(=O)N3CCC(Nc4ncc(C(F)(F)F)c(O[C@H]5CCOC5)n4)CC3)cn2)C[C@H](C)N1` [Example 117], for which the half-maximal inhibitory concentration (IC50) on CDK1 was 2.5 to 10 nM; on CDK2, less than 0.5 nM; at CDK4, less than 0.5 nM; at CDK7, 2.5 to 10 nM; on CDK9, 100 to 1000 nM; at CDK6 it was 0.5 to 2.5 nM.

For `Cn1cc(S(=O)(=O)N2CCC(Nc3ncc(C#N)c(NC4CCCC4)n3)CC2)cn1` [Compound 31], the IC50 on CDK1 was in the range of 50 to 100 nM; at CDK2 it was 0.5 to 2.5 nM; at CDK4, 2.5 to 10 nM; on CDK7, 100 to 1000 nM; on CDK9, 100 to 1000 nM; at CDK6, 0.5 to 2.5 nM.

As for `O=S(=O)(c1ccc(C2=CCNC2)cc1)N1CCC(Nc2ncc(C(F)(F)F)c(O[C@H]3CCOC3)n2)CC1` [Compound 146], the IC50 at CDK1 is 2.5 to 10 nM; on CDK2, less than 0.5 nM; at CDK4 it was 0.5 to 2.5 nM; at CDK7, 2.5 to 10 nM; at CDK9, 100 to 1000 nM; on CDK6, 0.5 to 2.5 nM.

For `O=S(=O)(c1ccc([C@H]2CCCNC2)cc1)N1CCC(Nc2ncc(C(F)(F)F)c(O[C@H]3CCOC3)n2)CC1` (single isomer, unassigned) [Example 115], the IC50 on CDK1 is 2.5 to 10 nM; at CDK2, less than 0.5 nM; at CDK4, 0.5 to 2.5 nM; on CDK7, 2.5 to 10 nM; at CDK9, 100 to 1000 nM; at CDK6, 0.5 to 2.5 nM.

For `CC1(O)CCN(c2ccc(S(=O)(=O)N3CCC(Nc4ncc(C(F)(F)F)c(O[C@H]5CCOC5)n4)CC3)cc2)CC1` [Compound 133], the IC50 was 2.5 to 10 nM at CDK1; less than 0.5 nM on CDK2; 0.5 to 2.5 nM at CDK4; 10 to 50 nM at CDK7; 50 to 100 nM on CDK9; 0.5 to 2.5 nM on CDK6.

As to `Cc1cc(S(=O)(=O)N2CCC(Nc3ncc(C(F)(F)F)c(O[C@H]4CCOC4)n3)CC2)ccc1C1=CCNCC1` [Compound 154], the IC50 at CDK1 is 10 to 50 nM; on CDK2, 0.5 to 2.5 nM; at CDK4 it was 0.5 to 2.5 nM; on CDK7 it was 10 to 50 nM; at CDK9, 100 to 1000 nM; on CDK6, 0.5 to 2.5 nM.

As to `Cn1cc(-c2ccc(S(=O)(=O)N3CCC(Nc4ncc(C#N)c(N[C@H]5CCOC5)n4)CC3)cc2)cn1` [Example 8, (S)-2-((1-((4-(1-Methyl-1H-pyrazol-4-yl)phenyl)sulfonyl)piperidin-4-yl)amino)-4-((tetrahydrofuran-3-yl)amino)pyrimidine-5-carbonitrile], the IC50 at CDK1 was 10 to 50 nM; at CDK2, 0.5 to 2.5 nM; on CDK4 it was 2.5 to 10 nM; at CDK7, 50 to 100 nM; at CDK9 it was 100 to 1000 nM; on CDK6, 0.5 to 2.5 nM.
